# ChEMBL document CHEMBL1201862, “PubChem BioAssay data set” (2004)
# The source made the active and inactive calls.
# Tests used:
# [1] = viability of PTEN-deleted HCT116 cells – cell-based, HCT116 PTEN knockout, dose response (AID 1047); assay type: functional;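 also: HCT116 colon tumor cells with PTEN knocked out; cells exposed to compound for 60 hours before readout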
# [2] = viability of HCT116 lacking mutant beta-catenin – cell-based, human colon tumor, dose response (AID 1045); assay type: functional;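 also: HCT116 colon tumor cells with beta catenin knocked out; cells exposed to compound for 60 hours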
# [3] = Luminescence Cell-Based Dose Retest to Confirm Inhibitors of Cancer Stem Cells. [Related pubchem assays (depositor defined):AID2717, AID2721]; assay type: functional; settings: Homo sapiens
# Insulin-degrading enzyme [4] = target: T1, Insulin-degrading enzyme (Homo sapiens, UniProt P14735); assay: recombinant IDE activation, cell-free – biochemical, fluorescence polarization, counter-screen for IDE activator project, dose response (AID 588681)
# T1 sequence (P14735 whole entry): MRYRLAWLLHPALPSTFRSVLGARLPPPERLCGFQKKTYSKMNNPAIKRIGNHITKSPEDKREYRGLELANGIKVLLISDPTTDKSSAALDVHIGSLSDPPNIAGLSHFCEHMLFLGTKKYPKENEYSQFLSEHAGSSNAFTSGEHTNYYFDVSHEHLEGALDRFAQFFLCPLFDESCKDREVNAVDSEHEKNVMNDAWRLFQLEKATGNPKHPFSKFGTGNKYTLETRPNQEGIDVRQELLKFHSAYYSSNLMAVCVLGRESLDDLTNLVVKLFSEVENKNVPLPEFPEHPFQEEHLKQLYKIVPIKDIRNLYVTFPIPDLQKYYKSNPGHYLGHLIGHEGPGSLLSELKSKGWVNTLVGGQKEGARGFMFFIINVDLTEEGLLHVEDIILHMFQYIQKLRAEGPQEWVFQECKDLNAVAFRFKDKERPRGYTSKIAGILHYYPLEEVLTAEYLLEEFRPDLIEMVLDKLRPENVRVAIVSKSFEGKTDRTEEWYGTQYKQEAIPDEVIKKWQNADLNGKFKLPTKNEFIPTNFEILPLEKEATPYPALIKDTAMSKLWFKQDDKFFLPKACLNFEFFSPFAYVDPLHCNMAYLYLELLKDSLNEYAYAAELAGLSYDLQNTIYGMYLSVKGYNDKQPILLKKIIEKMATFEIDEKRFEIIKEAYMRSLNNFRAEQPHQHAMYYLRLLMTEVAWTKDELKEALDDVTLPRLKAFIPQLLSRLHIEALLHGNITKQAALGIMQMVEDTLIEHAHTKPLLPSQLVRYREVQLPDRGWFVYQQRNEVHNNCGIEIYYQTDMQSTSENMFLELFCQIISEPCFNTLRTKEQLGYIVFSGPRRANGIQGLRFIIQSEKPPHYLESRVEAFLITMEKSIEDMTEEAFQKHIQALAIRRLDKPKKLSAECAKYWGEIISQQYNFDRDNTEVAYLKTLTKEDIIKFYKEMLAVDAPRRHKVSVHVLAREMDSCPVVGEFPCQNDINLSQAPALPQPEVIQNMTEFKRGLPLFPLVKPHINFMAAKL
# Insulin-degrading enzyme [5] = target: T1, Insulin-degrading enzyme; assay: cellular IDE activation of Abeta substrate cleavage – fluorescence polarization, HEK cells, dose response (AID 588439); assay type: functional, cell-based
# INS1 = assay: INS-1E survival protection against cytokine death – cell-based, luminescence, retest, dose response (AID 449756); assay type: functional; settings: Rattus norvegicus;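 also: cell death triggered by IL-1 beta plus TNF-alpha plus IFN-gamma mixture; protective hits raise ATP signal compared with cytokine alone wells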
# HEK293 [6] = assay: membrane integrity loss in HEK cells – cell-based, fluorescence, cytotoxicity control for IDE activator project, dose response (AID 588440); assay type: functional; settings: Homo sapiens;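 also: cytotoxicity by LDH release measuring loss of membrane integrity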
# HEK293 [7] = assay: optical interference in Abeta FP readout, dose response, artefact control for IDE activator project, biochemical, fluorescence polarization (AID 588442); assay type: functional, cell-based; settings: Homo sapiens
# [8] = reduction of Shn3 3'UTR-driven luciferase in osteoblasts – cell-based, Clone20 osteoblasts, firefly luciferase, cherry-picked, dose response (AID 624132); assay type: functional;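 also: firefly luciferase luminescence from reporter carrying the Shn3 3'UTR in osteoblasts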
# [9] = loss of viability in HepG2 cells – cell-based, CellTiter-Glo, cherry-picked, cytotoxicity control for Shn3 inhibitor project, dose response (AID 624134); assay type: functional
# [10] = non-specific 3'UTR reporter inhibition in Clone20-Shn3RL – cell-based, Renilla luciferase, cherry-picked, counter-screen for Shn3 inhibitor project, dose response (AID 624133); assay type: functional
# Cytochrome P450 1A2 = target: T2, Cytochrome P450 1A2 (Homo sapiens, UniProt P05177);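 also: PubChem cytochrome P450 panel assay, CYP1A2 panel member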
# T2 sequence (P05177 whole entry): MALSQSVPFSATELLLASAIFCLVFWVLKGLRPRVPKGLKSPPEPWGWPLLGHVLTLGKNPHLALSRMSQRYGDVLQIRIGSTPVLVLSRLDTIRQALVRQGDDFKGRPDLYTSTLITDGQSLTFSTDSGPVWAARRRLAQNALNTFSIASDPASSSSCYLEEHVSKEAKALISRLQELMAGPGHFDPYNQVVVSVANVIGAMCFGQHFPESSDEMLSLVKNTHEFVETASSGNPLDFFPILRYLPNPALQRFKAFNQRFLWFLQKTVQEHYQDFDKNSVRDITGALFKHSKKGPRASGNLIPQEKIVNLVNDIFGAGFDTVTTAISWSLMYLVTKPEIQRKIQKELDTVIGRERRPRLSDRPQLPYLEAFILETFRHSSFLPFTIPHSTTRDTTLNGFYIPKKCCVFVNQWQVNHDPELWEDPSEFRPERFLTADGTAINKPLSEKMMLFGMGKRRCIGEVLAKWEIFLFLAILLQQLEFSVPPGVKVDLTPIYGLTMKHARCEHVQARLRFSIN
# Beta-lactamase [11] = target: Beta-lactamase (Pseudomonas aeruginosa, UniProt Q79MP6);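 also: biochemical dose-response test of metallo-beta-lactamase enzyme inhibition, read out by epi-absorbance; purified recombinant IMP-1 metallo-beta-lactamase with nitrocefin as substrate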
# Sequence of Beta-lactamase (Pseudomonas aeruginosa, UniProt Q79MP6) (Q79MP6 whole entry): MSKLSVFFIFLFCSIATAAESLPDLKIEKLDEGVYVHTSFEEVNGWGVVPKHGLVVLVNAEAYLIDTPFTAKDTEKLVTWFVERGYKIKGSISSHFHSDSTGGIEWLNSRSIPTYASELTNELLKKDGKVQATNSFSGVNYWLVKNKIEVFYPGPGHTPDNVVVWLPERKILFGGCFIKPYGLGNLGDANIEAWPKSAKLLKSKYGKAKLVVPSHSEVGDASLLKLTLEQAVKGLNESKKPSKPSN
# Beta-lactamase [12] = target: Beta-lactamase (Salmonella choleraesuis (strain SC-B67), UniProt Q5J463)
# Sequence of Beta-lactamase (Salmonella choleraesuis (strain SC-B67), UniProt Q5J463) (Q5J463 whole entry, the tested form may be a part): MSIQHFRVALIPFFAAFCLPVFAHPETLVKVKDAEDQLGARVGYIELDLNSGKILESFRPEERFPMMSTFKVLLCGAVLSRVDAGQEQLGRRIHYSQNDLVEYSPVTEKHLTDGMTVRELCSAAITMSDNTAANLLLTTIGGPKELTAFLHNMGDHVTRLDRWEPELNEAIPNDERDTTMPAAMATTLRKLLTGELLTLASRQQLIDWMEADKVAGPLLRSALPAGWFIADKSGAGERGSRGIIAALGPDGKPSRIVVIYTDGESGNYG
# CHO = CHO cell viability loss, potency – luminescence, cytotoxicity control for TLR9-MyD88 binding inhibitor project, dose response (AID 588339); assay type: functional, cell-based, hamster; settings: Cricetulus griseus;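 also: CHO cells stably coexpressing TLR9 and MyD88 fusions from primary screen; compound exposure lasted 48 hours before viability readout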
# [13] = target: Insulin-like growth factor 1 receptor (Homo sapiens, UniProt P08069); assay: Navigating the Kinome. Panel member name: IGF1R; assay type: functional
# Sequence of Insulin-like growth factor 1 receptor (P08069 31-736 limits assumed): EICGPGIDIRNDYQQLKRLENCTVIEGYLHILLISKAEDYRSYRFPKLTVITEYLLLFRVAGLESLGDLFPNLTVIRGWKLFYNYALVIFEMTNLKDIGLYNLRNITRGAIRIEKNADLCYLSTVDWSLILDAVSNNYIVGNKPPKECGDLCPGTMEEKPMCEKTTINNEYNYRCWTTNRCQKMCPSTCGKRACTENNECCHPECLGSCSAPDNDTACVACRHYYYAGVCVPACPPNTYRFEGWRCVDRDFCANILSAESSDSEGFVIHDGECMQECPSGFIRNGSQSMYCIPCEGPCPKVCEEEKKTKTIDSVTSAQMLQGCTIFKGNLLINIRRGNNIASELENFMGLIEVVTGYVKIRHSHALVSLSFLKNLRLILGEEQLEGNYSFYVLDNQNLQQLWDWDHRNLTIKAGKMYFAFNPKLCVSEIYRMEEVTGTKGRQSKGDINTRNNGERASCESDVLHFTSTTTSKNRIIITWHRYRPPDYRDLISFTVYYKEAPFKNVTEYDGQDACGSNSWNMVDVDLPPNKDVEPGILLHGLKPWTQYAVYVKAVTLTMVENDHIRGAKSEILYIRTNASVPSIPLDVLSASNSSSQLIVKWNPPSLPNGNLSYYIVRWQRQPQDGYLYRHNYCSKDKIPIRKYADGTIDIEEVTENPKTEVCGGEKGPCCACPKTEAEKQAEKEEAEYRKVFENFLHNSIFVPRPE
# Sequence of Insulin-like growth factor 1 receptor (P08069 741-1367 limits assumed): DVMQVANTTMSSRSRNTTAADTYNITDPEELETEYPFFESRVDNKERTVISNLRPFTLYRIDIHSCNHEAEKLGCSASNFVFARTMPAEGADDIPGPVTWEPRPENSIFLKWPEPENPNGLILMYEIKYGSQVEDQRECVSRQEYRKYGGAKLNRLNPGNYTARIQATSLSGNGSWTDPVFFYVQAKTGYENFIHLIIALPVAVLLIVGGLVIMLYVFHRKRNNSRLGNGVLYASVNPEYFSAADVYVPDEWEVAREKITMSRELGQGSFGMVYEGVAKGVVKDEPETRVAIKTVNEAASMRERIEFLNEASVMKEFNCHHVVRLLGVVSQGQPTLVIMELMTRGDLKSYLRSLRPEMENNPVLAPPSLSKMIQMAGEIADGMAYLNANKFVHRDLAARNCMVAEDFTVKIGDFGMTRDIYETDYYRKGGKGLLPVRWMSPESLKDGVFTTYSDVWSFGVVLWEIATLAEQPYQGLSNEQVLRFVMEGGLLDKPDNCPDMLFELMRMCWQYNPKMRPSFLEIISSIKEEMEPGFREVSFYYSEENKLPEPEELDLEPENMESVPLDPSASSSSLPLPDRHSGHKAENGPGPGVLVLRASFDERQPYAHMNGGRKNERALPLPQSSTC
# [14] = target: Vascular endothelial growth factor receptor 3 (Homo sapiens, UniProt P35916); assay type: functional;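 also: value from a kinome-wide profiling panel, with FLT4 as the panel member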
# Sequence of Vascular endothelial growth factor receptor 3 (P35916 whole entry): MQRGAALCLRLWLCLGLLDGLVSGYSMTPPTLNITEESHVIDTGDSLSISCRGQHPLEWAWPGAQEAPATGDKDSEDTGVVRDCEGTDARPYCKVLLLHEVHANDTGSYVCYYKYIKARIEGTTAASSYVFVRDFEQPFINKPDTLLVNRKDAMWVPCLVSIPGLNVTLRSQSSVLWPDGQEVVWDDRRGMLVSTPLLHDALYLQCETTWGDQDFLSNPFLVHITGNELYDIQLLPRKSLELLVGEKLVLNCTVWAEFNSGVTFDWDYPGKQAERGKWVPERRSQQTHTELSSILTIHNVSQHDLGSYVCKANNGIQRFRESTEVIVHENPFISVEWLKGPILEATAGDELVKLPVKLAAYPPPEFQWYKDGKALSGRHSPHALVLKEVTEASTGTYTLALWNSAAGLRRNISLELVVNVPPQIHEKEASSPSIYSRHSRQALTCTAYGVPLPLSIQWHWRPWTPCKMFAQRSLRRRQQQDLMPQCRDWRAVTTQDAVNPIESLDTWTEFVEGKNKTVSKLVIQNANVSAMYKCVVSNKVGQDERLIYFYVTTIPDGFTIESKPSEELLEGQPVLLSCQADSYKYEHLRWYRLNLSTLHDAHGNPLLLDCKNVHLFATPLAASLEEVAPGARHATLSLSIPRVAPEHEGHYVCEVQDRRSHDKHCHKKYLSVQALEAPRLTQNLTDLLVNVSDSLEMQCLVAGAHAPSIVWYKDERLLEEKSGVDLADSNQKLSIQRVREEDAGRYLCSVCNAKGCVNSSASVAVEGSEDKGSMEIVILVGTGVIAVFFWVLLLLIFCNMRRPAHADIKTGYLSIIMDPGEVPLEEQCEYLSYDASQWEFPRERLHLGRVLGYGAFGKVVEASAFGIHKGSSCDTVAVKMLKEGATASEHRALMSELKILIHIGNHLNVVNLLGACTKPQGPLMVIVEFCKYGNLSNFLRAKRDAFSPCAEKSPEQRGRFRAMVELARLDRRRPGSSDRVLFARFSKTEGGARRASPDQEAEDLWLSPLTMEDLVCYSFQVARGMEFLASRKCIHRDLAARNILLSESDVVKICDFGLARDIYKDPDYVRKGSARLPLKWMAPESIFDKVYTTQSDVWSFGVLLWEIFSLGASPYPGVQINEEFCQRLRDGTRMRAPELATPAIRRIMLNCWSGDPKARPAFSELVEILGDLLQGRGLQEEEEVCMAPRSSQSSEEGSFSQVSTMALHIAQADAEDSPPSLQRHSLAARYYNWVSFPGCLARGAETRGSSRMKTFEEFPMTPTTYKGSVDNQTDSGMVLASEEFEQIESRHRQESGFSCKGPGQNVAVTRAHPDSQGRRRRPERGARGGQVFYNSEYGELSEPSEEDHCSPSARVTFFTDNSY
# [15] = target: Cyclin-dependent kinase 1 (Homo sapiens, UniProt P06493); assay type: functional;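 also: Kinome-wide panel profiling, with the target listed as panel member CDC2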
# Sequence of Cyclin-dependent kinase 1 (P06493 whole entry): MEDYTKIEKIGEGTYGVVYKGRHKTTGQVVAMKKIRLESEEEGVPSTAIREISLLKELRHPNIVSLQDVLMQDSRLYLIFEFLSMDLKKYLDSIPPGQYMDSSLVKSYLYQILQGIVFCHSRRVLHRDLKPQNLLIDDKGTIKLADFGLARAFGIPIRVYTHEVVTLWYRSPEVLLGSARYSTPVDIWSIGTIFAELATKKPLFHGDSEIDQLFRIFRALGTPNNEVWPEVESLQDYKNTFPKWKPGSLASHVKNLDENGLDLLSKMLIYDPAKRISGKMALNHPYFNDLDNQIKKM
# [16] = target: Multidrug resistance protein CDR1 (Candida albicans, UniProt P43071); assay: inhibition of Nile Red efflux via Candida CDR1 – S. cerevisiae AD1-8u, singleplex, Cherry Pick1 hits, dose response (AID 588606); assay type: functional
# Sequence of Multidrug resistance protein CDR1 (P43071 whole entry, looked up): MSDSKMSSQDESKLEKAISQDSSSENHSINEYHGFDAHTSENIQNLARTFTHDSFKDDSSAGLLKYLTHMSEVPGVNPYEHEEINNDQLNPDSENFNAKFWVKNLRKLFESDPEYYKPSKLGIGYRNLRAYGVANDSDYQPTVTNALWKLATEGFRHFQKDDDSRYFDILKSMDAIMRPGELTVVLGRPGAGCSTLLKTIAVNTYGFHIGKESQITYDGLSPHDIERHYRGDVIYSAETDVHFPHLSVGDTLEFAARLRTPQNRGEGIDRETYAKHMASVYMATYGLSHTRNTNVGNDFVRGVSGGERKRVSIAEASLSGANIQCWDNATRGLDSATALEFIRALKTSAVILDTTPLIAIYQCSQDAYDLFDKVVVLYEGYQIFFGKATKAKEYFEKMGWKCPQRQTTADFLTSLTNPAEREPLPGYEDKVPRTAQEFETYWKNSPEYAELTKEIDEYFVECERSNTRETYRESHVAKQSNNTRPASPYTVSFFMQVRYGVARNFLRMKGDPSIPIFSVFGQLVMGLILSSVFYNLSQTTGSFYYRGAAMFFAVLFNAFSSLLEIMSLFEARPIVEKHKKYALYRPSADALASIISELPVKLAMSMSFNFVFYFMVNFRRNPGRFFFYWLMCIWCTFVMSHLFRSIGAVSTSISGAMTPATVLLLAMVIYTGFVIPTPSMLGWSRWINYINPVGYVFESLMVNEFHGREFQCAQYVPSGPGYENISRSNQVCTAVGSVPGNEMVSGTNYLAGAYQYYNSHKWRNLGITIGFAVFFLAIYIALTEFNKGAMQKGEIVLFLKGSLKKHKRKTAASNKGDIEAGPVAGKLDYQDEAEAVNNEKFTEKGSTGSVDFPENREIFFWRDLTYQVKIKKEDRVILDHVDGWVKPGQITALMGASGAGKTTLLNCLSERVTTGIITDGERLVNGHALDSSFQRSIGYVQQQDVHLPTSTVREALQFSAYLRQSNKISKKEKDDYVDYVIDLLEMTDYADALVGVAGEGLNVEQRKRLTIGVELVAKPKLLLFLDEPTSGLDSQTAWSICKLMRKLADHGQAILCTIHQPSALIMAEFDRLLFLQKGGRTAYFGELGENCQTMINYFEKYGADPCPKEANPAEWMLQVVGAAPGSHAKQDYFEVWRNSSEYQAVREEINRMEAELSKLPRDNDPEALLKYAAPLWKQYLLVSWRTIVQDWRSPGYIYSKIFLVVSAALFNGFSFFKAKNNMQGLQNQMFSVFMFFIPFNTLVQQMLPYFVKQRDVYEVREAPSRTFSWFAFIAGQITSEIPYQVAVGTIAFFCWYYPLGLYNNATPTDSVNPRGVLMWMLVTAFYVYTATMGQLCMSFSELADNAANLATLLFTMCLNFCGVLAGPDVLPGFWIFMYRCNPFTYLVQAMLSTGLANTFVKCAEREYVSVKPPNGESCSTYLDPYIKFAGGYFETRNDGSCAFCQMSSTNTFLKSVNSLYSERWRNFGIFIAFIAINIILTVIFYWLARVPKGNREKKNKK
smiles,measurement,setting,value
COc1ccc(Cn2c(SCc3ccccc3C)nc3cc(OC)c(OC)cc3c2=N)cc1,EC50,[1],4.85 µM (active)
same,EC50,[2],3.81 µM (active)
same,AC50,[3],2.71 µM (active)
same,EC50,Insulin-degrading enzyme [4],> 54.7 µM (inactive)
same,EC50,Insulin-degrading enzyme [5],9.39 µM (active)
same,AC50,INS1,4.3 µM (active)
same,IC50,HEK293 [6],18.5 µM (inactive)
same,EC50,HEK293 [7],> 54.7 µM (inactive)
same,AC50,[8],5.46 µM (active)
same,AC50,[9],12.8 µM (active)
same,AC50,[10],16 µM (active)
same,AC50,Cytochrome P450 1A2,15.8 µM (inconclusive)
CCCCNc1ccc2c3c(cccc13)C(=O)N(CCCC)C2=O,IC50,Beta-lactamase [11],37.2 µM (inactive)
same,IC50,Beta-lactamase [12],3.89 µM (active)
same,IC50,CHO,> 49.7 µM (inactive)
same,EC50,Insulin-degrading enzyme [4],> 54.7 µM (inactive)
same,EC50,Insulin-degrading enzyme [5],> 54.7 µM (inactive)
same,IC50,HEK293 [6],> 89.1 µM (inactive)
same,EC50,HEK293 [7],12.1 µM (inactive)
Cc1cc(C)c(C=C2C(=O)Nc3ccccc32)[nH]1,Ki,[13],> 1 µM (inactive)
same,Ki,[14],0.316 µM (active)
same,Ki,[15],> 7.94 µM (inactive)
O=C(Nc1ccnc(-c2cccnc2)n1)c1cccc(Cl)c1Cl,EC50,[16],0.117 µM (active)
